From ChEMBL document CHEMBL1201862, “PubChem BioAssay data set” (2004)
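How tested: cells in 96-well plates exposed to compound for 48 hours at five concentrations. GI50 marks 50% less growth.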 Calls of active or inactive are those of the source. No stated cut-off is given here; in the data, active = GI50 up to about 1.1 µM and inactive = higher.

How the values were obtained:
Test in all cases: inhibition of tumour cell growth, NCI panel, 48 h
[1] = system: TK-10
[2] = system: OVCAR-5
[3] = system: ACHN
[4] = system: A498
[5] = system: OVCAR-8
[6] = system: PC-3
[7] = system: RXF 393
[8] = system: Malme-3M
[9] = system: SNB-75
[10] = system: 786-0
[11] = system: UACC-62
[12] = system: OVCAR-3
[13] = system: SK-MEL-5
[14] = system: CCRF-CEM
[15] = system: OVCAR-4
[16] = system: HL-60
[17] = system: NCI/ADR-RES
[18] = system: M14
[19] = system: SK-MEL-2

Row | SMILES | GI50 [1] | GI50 [2] | GI50 [3] | GI50 [4] | GI50 [5] | GI50 [6] | GI50 [7] | GI50 [8] | GI50 [9] | GI50 [10] | GI50 [11] | GI50 [12] | GI50 [13] | GI50 [14] | GI50 [15] | GI50 [16] | GI50 [17] | GI50 [18] | GI50 [19]
1 | O=C1C(Cl)=C(N2CCN(c3ccccn3)CC2)C(=O)c2c(O)ccc(O)c21 | 2.29 µM (inactive) | 6.08 µM (inactive) | 2.42 µM (inactive) | 4.25 µM (inactive) | 2.12 µM (inactive) | 1.94 µM (inactive) | 1.74 µM (inactive) | 1.65 µM (inactive) | 1.89 µM (inactive) | 1.25 µM (inactive) | 0.752 µM (active) | 1.95 µM (inactive) | 1.42 µM (inactive) | 0.37 µM (active) | 1.59 µM (inactive) | 0.128 µM (active) | 2.38 µM (inactive) | 1.46 µM (inactive) | 
2 | Cc1nnc2sc(Cl)nn12 | 27.7 µM (inactive) | 23 µM (inactive) | 23.3 µM (inactive) | 31.3 µM (inactive) | 32.9 µM (inactive) | 17.2 µM (inactive) | > 10 µM (inactive) | 22.1 µM (inactive) | 45.3 µM (inactive) | 26.5 µM (inactive) | 4.51 µM (inactive) | 19 µM (inactive) | 12.6 µM (inactive) | 3.85 µM (inactive) | 16.8 µM (inactive) |  | 51.5 µM (inactive) | 13.6 µM (inactive) | 24.1 µM (inactive)
3 | N/C(=N\OC(=O)NC(Cl)=C(Cl)Cl)c1cc(C(F)(F)F)cc(C(F)(F)F)c1 | 16.5 µM (inactive) | 21.1 µM (inactive) | 14 µM (inactive) | 17.5 µM (inactive) | 20.1 µM (inactive) | 17.5 µM (inactive) |  | 23.9 µM (inactive) |  | 16.2 µM (inactive) |  | 14.8 µM (inactive) | 26.8 µM (inactive) | 4.65 µM (inactive) |  | 12.8 µM (inactive) | 19.5 µM (inactive) | 25.2 µM (inactive) | 
4 | C=CC(=O)Nc1ccc(NC(=O)C=C)c2c1C(=O)c1ccccc1C2=O | 23.2 µM (inactive) | > 100 µM (inactive) | 61.7 µM (inactive) | > 100 µM (inactive) | 27.7 µM (inactive) | 40.8 µM (inactive) |  | > 100 µM (inactive) |  | 21.5 µM (inactive) | 21.4 µM (inactive) | 35.6 µM (inactive) | 60.1 µM (inactive) |  |  | 3.86 µM (inactive) | > 100 µM (inactive) | 29.6 µM (inactive) | 69.3 µM (inactive)
5 | CC(Cc1cccc2c1Nc1ccccc1S2)N(C)CCO (stereo unspecified) | > 100 µM (inactive) | > 100 µM (inactive) | > 100 µM (inactive) | 26.4 µM (inactive) | > 100 µM (inactive) | > 100 µM (inactive) | > 100 µM (inactive) | > 100 µM (inactive) |  | > 100 µM (inactive) | > 100 µM (inactive) | > 100 µM (inactive) | > 100 µM (inactive) | > 100 µM (inactive) | > 100 µM (inactive) | > 100 µM (inactive) | > 100 µM (inactive) | > 100 µM (inactive) | 
6 | O=C1NC(=S)NC(=O)C1C(c1ccc(Cl)cc1)C1C(=O)NC(=S)NC1=O.c1ccncc1 | > 100 µM (inactive) | > 100 µM (inactive) | > 100 µM (inactive) | > 100 µM (inactive) | > 100 µM (inactive) | > 100 µM (inactive) | > 100 µM (inactive) | 60.8 µM (inactive) |  | > 100 µM (inactive) | > 100 µM (inactive) | > 100 µM (inactive) | > 100 µM (inactive) | > 100 µM (inactive) | > 100 µM (inactive) | > 100 µM (inactive) | > 100 µM (inactive) | > 100 µM (inactive) | > 100 µM (inactive)
7 | N#Cc1ncn(CCO)c1N | > 100 µM (inactive) | > 100 µM (inactive) | > 100 µM (inactive) | > 100 µM (inactive) | > 100 µM (inactive) | > 100 µM (inactive) |  | > 100 µM (inactive) | > 100 µM (inactive) | > 100 µM (inactive) | > 100 µM (inactive) | > 100 µM (inactive) | > 100 µM (inactive) | > 100 µM (inactive) | > 100 µM (inactive) | > 100 µM (inactive) | > 100 µM (inactive) | > 100 µM (inactive) | > 100 µM (inactive)
8 | CCC(C)[C@H](NC(=O)[C@H](Cc1ccccc1)NC(=O)N(CC)c1ccccc1)C(=O)N[C@@H](CC(C)C)C(=O)OC (stereo partly specified) | 37.9 µM (inactive) | > 100 µM (inactive) | 25.6 µM (inactive) | > 100 µM (inactive) | 34 µM (inactive) | 35.3 µM (inactive) | 74.1 µM (inactive) | 31 µM (inactive) | 70.5 µM (inactive) | 40.6 µM (inactive) | 48 µM (inactive) | 24.8 µM (inactive) | 26.7 µM (inactive) | 21.4 µM (inactive) | 94.4 µM (inactive) |  | > 100 µM (inactive) | 37.6 µM (inactive) | 36.6 µM (inactive)
